From PMC9694926, “Novel Uracil-Based Inhibitors of Acetylcholinesterase with Potency for Treating Memory Impairment in an Animal Model of Alzheimer’s Disease” (Molecules, 2022)
Counter-ions that a name gives are not always drawn. Like-named read-outs stand apart in the source and are kept apart here.

Assays:
[1] = target: T1, hAChE (Homo sapiens, UniProt P22303); settings: cited from earlier work; for IC50: human AChE
T1 construct: purchased Sigma-Aldrich

[2] = target: T2, hBChE (Homo sapiens, UniProt P06276); settings: cited from earlier work
T2 construct: hBChE from blood plasma; purchased Sigma-Aldrich; host or cells: human blood plasma

[3] = system: CD1 mice; settings: i.p. injection, cited from earlier work
[4] = target: T1, hAChE; assay: biochemical; assay type: biochemical; settings: for AChE Selectivity: (IC50 BChE)/(IC50 AChE); for IC50: human AChE, acetylthiocholine 1 mM, mean of three independent measurements
Description: (§1) The inhibitory potency of compounds against hAChE and hBChE was studied using Ellman’s method. Acetylthiocholine iodide (ATC), butyrylthiocholine iodide (BTC), recombinant hAChE, hBChE from blood plasma, and 5,5′-dithio-bis-(2-nitrobenzoic) acid (DTNB) were purchased from Sigma-Aldrich (Sigma-Aldrich, St. Louis, MO, USA). Stock solutions of compounds (0.01 M) were prepared using ethanol or water. In the case of compounds soluble in ethanol, the final concentration of ethanol in the cuvette was 0.1% vol. […] The enzyme-catalyzed reaction of hydrolysis was carried out in 0.1 M phosphate buffer at pH 8.0 containing 0.25 units of hAChE or hBChE and 1 mM ATC or BTC as substrates. The tested compounds were pre-incubated with the enzyme for 5 min at 25 °C prior to the addition of the substrate and the commencement of hydrolysis kinetics recording. Experiments were performed in triplicate. […] The sample without substrate was used as a blank. The sample without inhibitor was used as a control (in a solution of 0.1% vol. ethanol in the case of compounds soluble in ethanol). Percentage of AChE/BChE inhibition was determined by comparison of rates of reaction of test samples relative to the control sample. The percentage of inhibition as a function of compound concentration was plotted using OriginPro 8.5 software (OriginLab Corporation, Northampton, MA, USA).

[5] = target: T2, hBChE; assay: biochemical; settings: butyrylthiocholine 1 mM, mean of three independent measurements
Description: as §1

[6] = Acute toxicity (LD50), intraperitoneal injection; assay type: in vivo; settings: CD1, mouse, in vivo, ip; mice, i.p. injection
Description: (§2) All experiments involving animals were performed in accordance with the guidelines set out by the European Union Council Directive 2010/63/EU; the experimental protocols were approved by the Animal Care and Use Committee of the Federal Research Center “Kazan Scientific Center of the Russian Academy of Sciences”. Toxicological experiments were performed using intraperitoneal injection of the various compounds in CD1 mice weighing 20–25 g. Mice were maintained on a 12 h light/dark cycle (light from 7:00 a.m. to 7:00 p.m.) at 20−22 °C and 60−70% relative humidity. Five different doses (determined during preliminary tests) were used with six animals per dose. Animals were observed 14 days after injection, and symptoms of intoxication were recorded. […] LD50 was determined by the method of Weiss. Stock solutions of compounds were prepared in ethanol or water. Compounds were administered intraperitoneally in sterile physiological saline. The concentration of ethanol in physiological saline was 5% vol.

[7] = system: scopolamine-induced amnesia in mice; assay: T-maze spatial memory test in scopolamine-induced amnesia model; assay type: in vivo, CD1 mice; settings: scopolamine 2 mg/kg i.p.; 1 mg/kg p.o. daily
Description: During the first set of in vivo experiments, the ability of compound 2c to reverse the scopolamine-induced amnesia in mice was studied by means of behavioral testing in a T-maze. The percentages of correct choices and mice reaching the criterion of learning were evaluated along with the dynamic of reaching the criterion of learning. Amnesia was caused by intraperitoneal administration of scopolamine (2 mg/kg) 40 min prior to testing. […]. The control group of mice was treated with saline. The behavior of mice was observed within 18 days (Figure 6A).
Scopolamine, representing a muscarinic acetylcholine receptor antagonist, produces a transient receptor blockade and cognitive deficits, which can be considered as a model of AD [28]. CD1 mice were randomly divided into 5 groups (n = 8–10): control group of mice treated with saline; mice injected with a water solution of scopolamine (2 mg/kg, i.p.) at 40 min before testing; […]. Drugs were administered over 18 days.
A reward alternation task was used to assess spatial memory performance in T-maze (OpenScience, Moscow, Russia) as previously described. Briefly, prior to commencing T-maze testing, mice were placed on a food-deprivation schedule over 3 days. […] The percentages of correct choices and mice reaching the criterion of learning were evaluated along with the dynamic of reaching the criterion of learning.

[8] = system: APP/PS1 mice; settings: 1 mg/kg p.o. daily
Description: Wild-type and APP/PS1 saline treated mice were employed as negative and positive controls, respectively. The behavior of mice in the T-maze was observed within 18 days (Figure 7A).
Mice were assigned to four groups (n = 8–10). […] APP/PS1 mice and their wild-type non-transgenic littermates that received saline were used as positive and negative controls.
A reward alternation task was used to assess spatial memory performance in T-maze (OpenScience, Moscow, Russia) as previously described [32, 33]. Briefly, prior to commencing T-maze testing, mice were placed on a food-deprivation schedule over 3 days. On the fourth day, mice were placed in the start arm of the T-maze and made it possible to move freely. Over the next 14 days of testing, mice were given 6 pairs of training trials. In the first trial of each pair (forced trial), one of the goal arm guillotine doors was closed and the mouse was constrained to selecting the opposite arm. The mouse was returned to the start box 15–20 s after consuming the reward (diluted sweetened condensed milk). In the second (free choice) trial, both goal arm doors were opened, the arm opposite the one selected in the forced trial was baited. […] The percentages of correct choices and mice reaching the criterion of learning were evaluated along with the dynamic of reaching the criterion of learning.

[9] = system: CD1 mice; assay: Acute toxicity (LD50), intraperitoneal injection; assay type: in vivo; settings: i.p. injection
Description: as §2

[10] = Solubility in water

T1 sequence (P22303 32-614): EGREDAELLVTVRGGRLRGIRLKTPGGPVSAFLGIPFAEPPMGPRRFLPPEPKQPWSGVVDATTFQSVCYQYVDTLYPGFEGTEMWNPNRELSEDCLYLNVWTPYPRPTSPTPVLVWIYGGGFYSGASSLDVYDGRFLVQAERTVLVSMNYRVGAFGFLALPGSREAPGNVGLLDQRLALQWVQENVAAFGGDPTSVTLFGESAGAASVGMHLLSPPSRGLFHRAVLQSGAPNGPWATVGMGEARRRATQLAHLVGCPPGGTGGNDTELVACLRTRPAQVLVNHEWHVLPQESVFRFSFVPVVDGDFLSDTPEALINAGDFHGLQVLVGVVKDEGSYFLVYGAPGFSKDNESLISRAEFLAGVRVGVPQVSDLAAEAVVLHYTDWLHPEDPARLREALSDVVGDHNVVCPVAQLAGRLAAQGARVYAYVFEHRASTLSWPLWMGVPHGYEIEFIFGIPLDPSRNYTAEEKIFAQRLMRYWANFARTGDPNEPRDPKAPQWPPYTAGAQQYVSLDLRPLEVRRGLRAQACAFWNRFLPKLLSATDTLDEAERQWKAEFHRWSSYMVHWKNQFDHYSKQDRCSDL
T2 sequence (P06276 29-602): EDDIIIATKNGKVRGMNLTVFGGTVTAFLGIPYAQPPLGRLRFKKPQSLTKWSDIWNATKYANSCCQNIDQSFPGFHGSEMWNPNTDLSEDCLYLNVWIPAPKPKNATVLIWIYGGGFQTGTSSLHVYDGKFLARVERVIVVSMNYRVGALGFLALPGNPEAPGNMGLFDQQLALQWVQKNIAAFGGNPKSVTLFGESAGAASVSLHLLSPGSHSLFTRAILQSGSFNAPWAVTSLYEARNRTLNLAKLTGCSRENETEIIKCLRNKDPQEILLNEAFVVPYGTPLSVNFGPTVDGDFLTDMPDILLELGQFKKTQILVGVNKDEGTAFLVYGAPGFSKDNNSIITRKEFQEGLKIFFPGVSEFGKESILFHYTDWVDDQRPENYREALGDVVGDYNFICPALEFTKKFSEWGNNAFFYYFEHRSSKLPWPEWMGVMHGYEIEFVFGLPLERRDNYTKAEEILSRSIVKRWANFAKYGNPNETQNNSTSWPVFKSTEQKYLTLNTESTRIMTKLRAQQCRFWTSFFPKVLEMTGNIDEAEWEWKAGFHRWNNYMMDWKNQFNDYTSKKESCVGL

Compound | AChE Selectivity [4] | IC50 [4] | IC50 [5] | LD50 at 14 days [6] | other results
CCN(CCCCCn1c(C)cc(=O)n(CCCCCN(CC)Cc2ccccc2[N+](=O)[O-])c1=O)Cc1ccccc1[N+](=O)[O-] [1a] | – | – | – | – | AChE Selectivity ([1]; (IC50 BChE)/(IC50 AChE), ref [12]): 10,000; IC50 ([1]; ref [12]): 0.0035 ± 0.0003 µM; IC50 ([2]; ref [12]): 35 µM; LD50 ([3]; ref [12]): 51 mg/kg
CCN(CCCCCn1c(C)cc(=O)n(CCCCCN(CC)Cc2ccccc2C(F)(F)F)c1=O)Cc1ccccc1C(F)(F)F [1b] | – | – | – | – | IC50 ([1]; ref [12]): 0.0056 ± 0.0007 µM; IC50 ([2]; ref [12]): 20 µM; LD50 ([3]; ref [12]): 49 mg/kg
CCN(CCCCCn1c(C)cc(=O)n(CCCCCN(CC)Cc2ccccc2C#N)c1=O)Cc1ccccc1C#N [1c] | – | – | – | – | IC50 ([1]; ref [14]): 0.0073 ± 0.0006 µM; IC50 ([2]; ref [14]): 100 µM; LD50 ([3]; ref [14]): 138 mg/kg
CCN(CCCn1c(C)cc(=O)n(CCCN(CC)Cc2cccc(C(=O)OC)c2)c1=O)Cc1cccc(C(=O)OC)c1 [2a, 1,3-Bis[3-(meta-methoxycarbonylbenzylethylamino)propyl]-6-methyluracil] | 0.08 | 210 µM | 16 µM | 170 mg/kg | –
CCN(CCCCn1c(C)cc(=O)n(CCCCN(CC)Cc2cccc(C(=O)OC)c2)c1=O)Cc1cccc(C(=O)OC)c1 [2b, 1,3-Bis[4-(meta-methoxycarbonylbenzylethylamino)butyl]-6-methyluracil] | 722 | 0.027 ± 0.003 µM | 19.5 µM | 120 mg/kg | –
CCN(CCCCCCn1c(C)cc(=O)n(CCCCCCN(CC)Cc2cccc(C(=O)OC)c2)c1=O)Cc1cccc(C(=O)OC)c1 [2d, 1,3-Bis[6-(meta-methoxycarbonylbenzylethylamino)hexyl]-6-methyluracil] | 285 | 0.0047 ± 0.00017 µM | 1.34 ± 0.33 µM | 47.5 mg/kg | –
CCN(CCCCCn1c(C)cc(=O)n(CCCCCN(CC)Cc2cccc(C(=O)[O-])c2)c1=O)Cc1cccc(C(=O)[O-])c1.[Na+].[Na+] [2e, 1,3-Bis[5-((meta-methylbenzoate)ethylamino)pentyl]-6-methyluracil disodium salt] | 1.6 × 10^6 | 0.013 ± 0.001 µM | ~21000 µM | 170 mg/kg | –
CCN(CCCCn1c(C)cc(=O)n(CCCCN(CC)Cc2ccc(C(=O)OC)cc2)c1=O)Cc1ccc(C(=O)OC)cc1 [3a, 1,3-Bis[4-(para-methoxycarbonylbenzylethylamino)butyl]-6-methyluracil] | 39 | 3.3 ± 0.58 µM | 128 µM | 51 mg/kg | –
CCN(CCCCCn1c(C)cc(=O)n(CCCCCN(CC)Cc2ccc(C(=O)OC)cc2)c1=O)Cc1ccc(C(=O)OC)cc1 [3b, 1,3-Bis[5-(para-methoxycarbonylbenzylethylamino)pentyl]-6-methyluracil] | 355.5 | 0.768 ± 0.08 µM | 273 µM | 188 mg/kg | –
CCN(CCCCCCn1c(C)cc(=O)n(CCCCCCN(CC)Cc2ccc(C(=O)OC)cc2)c1=O)Cc1ccc(C(=O)OC)cc1 [3c, 1,3-Bis[6-(para-methoxycarbonylbenzylethylamino)hexyl]-6-methyluracil] | 2218 | 0.027 ± 0.007 µM | 59.9 µM | 87 mg/kg | selectivity against AChE lower compared to compound 2c ([4]; AChE vs BChE): more than 15 times
CCN(CCCCCn1c(C)cc(=O)n(CCCCCN(CC)Cc2ccc(C(=O)[O-])cc2)c1=O)Cc1ccc(C(=O)[O-])cc1.[Na+].[Na+] [3d, 1,3-Bis[5-((para-methylbenzoate)ethylamino)pentyl]-6-methyluracil disodium salt] | – | 0.0046 ± 0.0004 µM | > 100000 µM | 168 mg/kg | –
CCN(CCCCn1c(=O)c2ccccc2n(CCCCN(CC)Cc2cccc(C(=O)OC)c2)c1=O)Cc1cccc(C(=O)OC)c1 [4a, 1,3-Bis[4-(meta-methoxycarbonylbenzylethylamino)butyl]-quinazoline-2,4-dione] | 7 | 0.46 ± 0.095 µM | 3.16 ± 0.39 µM | 120 mg/kg | –
CCN(CCCCCn1c(=O)c2ccccc2n(CCCCCN(CC)Cc2cccc(C(=O)OC)c2)c1=O)Cc1cccc(C(=O)OC)c1 [4b] | 8.2 | 0.29 ± 0.042 µM | 2.38 ± 0.49 µM | 93 mg/kg | –
COc1cc2c(cc1OC)C(=O)C(CC1CCN(Cc3ccccc3)CC1)C2 (centres unmarked) [Donepezil, donepezil hydrochloride] | – | – | – | – | percentage of correct choices in T-maze [7]: 66.78 ± 2.62%; percentage of mice reaching the criterion of learning by day 14 [7]: 80%; percentage of correct choices in T-maze [8]: 67.46 ± 2.35%; percentage of mice reaching the criterion of learning [8]: 50%
CCN(CCCCCn1c(C)cc(=O)n(CCCCCN(CC)Cc2cccc(C(=O)OC)c2)c1=O)Cc1cccc(C(=O)OC)c1 [compound 9] | – | – | – | – | LD50 [9]: 96 mg/kg; solubility in water [10]: water-soluble
